Source: patent publication US20240209028A1, “CNP COMPOUNDS” (priority 2022, published 2024)
Starred links: 1 amine or outer side, 2 acyl side, 3 side chain; linkers in the order of their positions; H or OH if unused. Positions of bridges follow the written chain, without caps; N, C: chain ends. Residues, ends and D or L forms follow the SMILES beside them. *: point of attachment. C18 diacid = O=C(O)CCCCCCCCCCCCCCCCC(=O)*; γGlu = O=C(O)[C@H](CCC(=O)[*:2])N[*:1]; AEEA = NCCOCCOCC(=O)O

Biological target: T1, human natriuretic peptide receptor 2 (hNPR2) (Homo sapiens, UniProt P20594)
T1 construct: expressed in transfected cells; host or cells: HEK293 (ATCC CRL-1573), clone 35, co-transfected with pGloSensor-42F
T1 sequence (P20594 23-1047): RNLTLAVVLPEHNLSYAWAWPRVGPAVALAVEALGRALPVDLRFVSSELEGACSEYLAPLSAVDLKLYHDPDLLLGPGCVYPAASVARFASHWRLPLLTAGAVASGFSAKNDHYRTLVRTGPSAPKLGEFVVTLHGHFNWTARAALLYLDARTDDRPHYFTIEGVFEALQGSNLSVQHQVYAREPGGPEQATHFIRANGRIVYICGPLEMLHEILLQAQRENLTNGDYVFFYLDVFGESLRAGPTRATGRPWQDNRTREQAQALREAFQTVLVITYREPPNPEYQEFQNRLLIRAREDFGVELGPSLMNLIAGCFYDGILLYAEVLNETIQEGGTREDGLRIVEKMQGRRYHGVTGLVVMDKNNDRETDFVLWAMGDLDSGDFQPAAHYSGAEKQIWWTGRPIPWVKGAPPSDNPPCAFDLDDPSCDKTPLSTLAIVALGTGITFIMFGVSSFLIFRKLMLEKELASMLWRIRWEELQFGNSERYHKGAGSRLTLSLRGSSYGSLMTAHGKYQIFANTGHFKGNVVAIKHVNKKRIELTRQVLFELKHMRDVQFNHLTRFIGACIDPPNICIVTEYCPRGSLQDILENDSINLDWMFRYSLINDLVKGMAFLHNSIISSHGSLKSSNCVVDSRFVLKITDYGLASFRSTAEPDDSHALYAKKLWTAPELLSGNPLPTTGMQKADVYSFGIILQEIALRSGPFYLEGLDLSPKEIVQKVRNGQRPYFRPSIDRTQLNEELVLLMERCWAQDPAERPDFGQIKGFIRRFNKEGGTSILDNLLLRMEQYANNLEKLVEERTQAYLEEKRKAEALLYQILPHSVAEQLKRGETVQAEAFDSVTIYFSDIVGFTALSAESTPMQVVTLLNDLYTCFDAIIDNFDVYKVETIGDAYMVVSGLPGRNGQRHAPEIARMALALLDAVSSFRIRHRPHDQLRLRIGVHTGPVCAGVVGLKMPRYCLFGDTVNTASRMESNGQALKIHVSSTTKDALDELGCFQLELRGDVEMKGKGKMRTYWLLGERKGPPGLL
Experiment: In vitro hNPR2 activity assay (cGMP GloSensor reporter, HEK293)
Format: cell-based
Settings: potency relative to CNP22 (0065)
Procedure: To evaluate the in vitro activity of CNP22 (0065; Chem. 1) and CNP compounds of the invention, they were tested for their ability to induce production of cyclic guanosine monophosphate (cGMP) in reporter cells expressing the human natriuretic peptide receptor 2 (hNPR2).
Cell culture: To produce the reporter cell line, HEK293 (ATCC® CRL-1573™) cells were stably transfected with the pGloSensor-42F reporter plasmid (GloSensor cGMP reporter—luciferase, Promega) and an expression plasmid encoding the hNPR2 receptor. A single cell clone was isolated for the reporter cell line. When reporter cells are exposed to an hNPR2 activating compound, hNPR2 cause production of cGMP. […] Active GloSensor luciferase is able to convert luciferin to oxyluciferin, a process that produces bioluminescence. Upon cell lysis and supply of luciferase substrate, luciferase activity can be quantified by detection of luminescence. Therefore, addition of an hNPR2 activating compound and subsequent addition of detection reagent to reporter cells causes generation of luminescence in a dose dependent manner. […] This measure, also referred to as in vitro potency, is reported for all compounds tested. In all the in vitro activity experiments, CNP22 was used as a positive in-plate control for hNPR2 activation. To reduce inter-assay variation, we also report the potency of each compound relative to the potency of the CNP22 control on each plate.
Procedure: HEK293-hNPR2/GloSensor clone 35 cells were continuously cultured in selection medium (DMEM containing 10% FCS, 1% P/S, 200 μg/mL G418 and 100 μg/mL hygromycin). To perform the assay, cells were detached with TrypLE Express (Gibco #12604013), put through a 70 μm cell strainer, counted and seeded in 30 μL/well assay medium (DMEM without phenol red and with 1% P/S) at 10,000 cells/well in white 384-well plates (Perkin Elmer #6007680) overnight. The following day, test compounds were serial diluted in dilution medium (DMEM without phenol red containing 1% OVA (Sigma #A5505 lot 04M7001V), 0.01% Tween20 (Roche #33766700) and 1% P/S) and 10 μL/well of diluted test compounds were subsequently added to the cells. For each compound, ten different concentrations in the range 0.25 μM-10 μM were tested. After 30 min of incubation at 37° C. and 5% CO2, 40 μL/well Bright-Glo detection reagent (Promega #E2650) was added. […] To determine the in vitro potency or EC50 of each test compound, a four parameter logistic regression was done on the raw data for each test compound using the Python package SciPy optimize. The average EC50 values are listed as “hNPR2 0% HSA. [EC50 (nM)]” in Table 2. A relative potency was calculated by the following expression: EC50 (CNP22 in-plate control)/EC50 (test compound)*100, shown as “hNPR2 0% HSA. [EC50% rel CNP]” in Table 2. A minimum of two replicates was measured for each test compound.

Compound | hNPR2 0% HSA. [EC50% rel CNP] [%]
CC[C@H](C)[C@@H]1NC(=O)[C@H](CCCNC(=N)N)NC(=O)[C@H](CC(=O)O)NC(=O)[C@H](CC(C)C)NC(=O)[C@@H]2CCCN2C(=O)[C@H](CC(C)C)NC(=O)CNC(=O)[C@H](Cc2ccccc2)NC(=O)[C@@H](NC(=O)CNC(=O)[C@H](CCC(N)=O)NC(=O)[C@H](CO)NC(=O)[C@H](CC(C)C)NC(=O)CNC(=O)[C@H](CCCCN)NC(=O)[C@H](CCCCN)NC(=O)[C@H](CCC(N)=O)NC(=O)[C@H](C)NC(=O)CNC(=O)[C@H](CCCCN)NC(=O)[C@H](Cc2ccc(O)cc2)NC(=O)[C@H](CCCCN)NC(=O)[C@H](CCCNC(=N)N)NC(=O)[C@H](C)NC(=O)[C@H](CCC(N)=O)NC(=O)[C@@H]2CCCN2C(=O)[C@H](Cc2c[nH]cn2)NC(=O)[C@H](CCC(=O)O)NC(=O)[C@H](CCC(N)=O)NC(=O)COCCOCCNC(=O)COCCOCCNC(=O)CC[C@H](NC(=O)CC[C@H](NC(=O)CC[C@H](NC(=O)CC[C@H](NC(=O)CCCCCCCCCCCCCCCCC(=O)O)C(=O)O)C(=O)O)C(=O)O)C(=O)O)CSSC[C@@H](C(=O)O)NC(=O)CNC(=O)[C@H](CC(C)C)NC(=O)CNC(=O)[C@H](CO)NC(=O)[C@H](CC(C)C)NC(=O)[C@H](CO)NC(=O)CNC1=O [compound 1472] ({C18 diacid-γGlu-γGlu-γGlu-γGlu-AEEA-AEEA}-QEHPQARKYKGAQKKGLSQGCFGLPLDRIGSLSGLGC-OH; disulfide 21-37; C-terminus assumed) | 52.0
CC[C@H](C)[C@@H]1NC(=O)[C@H](CCCNC(=N)N)NC(=O)[C@H](CC(=O)O)NC(=O)[C@H](CC(C)C)NC(=O)[C@@H]2CCCN2C(=O)[C@H](CC(C)C)NC(=O)CNC(=O)[C@H](Cc2ccccc2)NC(=O)[C@@H](NC(=O)CNC(=O)[C@H](CCC(N)=O)NC(=O)[C@H](CO)NC(=O)[C@H](CC(C)C)NC(=O)CNC(=O)[C@H](CCCCN)NC(=O)[C@H](CCCCN)NC(=O)[C@H](CCC(N)=O)NC(=O)[C@H](C)NC(=O)CNC(=O)[C@H](CCCCN)NC(=O)[C@H](Cc2ccc(O)cc2)NC(=O)[C@H](CCCCN)NC(=O)[C@H](CCCNC(=N)N)NC(=O)[C@H](C)NC(=O)[C@H](CCC(N)=O)NC(=O)[C@@H]2CCCN2C(=O)[C@H](Cc2c[nH]cn2)NC(=O)[C@H](CCC(=O)O)NC(=O)[C@H](CCC(N)=O)NC(=O)COCCOCCNC(=O)COCCOCCNC(=O)CC[C@H](NC(=O)CC[C@H](NC(=O)CC[C@H](NC(=O)CC[C@H](NC(=O)CC[C@H](NC(=O)CCCCCCCCCCCCCCCCC(=O)O)C(=O)O)C(=O)O)C(=O)O)C(=O)O)C(=O)O)CSSC[C@@H](C(=O)O)NC(=O)CNC(=O)[C@H](CC(C)C)NC(=O)CNC(=O)[C@H](CO)NC(=O)[C@H](CC(C)C)NC(=O)[C@H](CO)NC(=O)CNC1=O [compound 1471] ({C18 diacid-γGlu-γGlu-γGlu-γGlu-γGlu-AEEA-AEEA}-QEHPQARKYKGAQKKGLSQGCFGLPLDRIGSLSGLGC-OH; disulfide 21-37) | 40.2
CC[C@H](C)[C@@H]1NC(=O)[C@H](CCCNC(=N)N)NC(=O)[C@H](CC(=O)O)NC(=O)[C@H](CC(C)C)NC(=O)[C@@H]2CCCN2C(=O)[C@H](CC(C)C)NC(=O)CNC(=O)[C@H](Cc2ccccc2)NC(=O)[C@@H](NC(=O)CNC(=O)[C@H](CCCCN)NC(=O)[C@H](CO)NC(=O)[C@H](CC(C)C)NC(=O)CNC(=O)[C@H](CCCCN)NC(=O)[C@H](CCCCN)NC(=O)[C@H](CCC(N)=O)NC(=O)[C@H](C)NC(=O)CNC(=O)[C@H](CCC(=O)O)NC(=O)[C@H](Cc2ccc(O)cc2)NC(=O)[C@H](CCCCN)NC(=O)[C@H](CCCNC(=N)N)NC(=O)[C@H](C)NC(=O)[C@H](CCC(N)=O)NC(=O)[C@@H]2CCCN2C(=O)[C@H](Cc2c[nH]cn2)NC(=O)[C@H](CCC(=O)O)NC(=O)[C@H](CCC(N)=O)NC(=O)CC[C@H](NC(=O)CC[C@H](NC(=O)CC[C@H](NC(=O)CC[C@H](NC(=O)CCCCCCCCCCCCCCCCC(=O)O)C(=O)O)C(=O)O)C(=O)O)C(=O)O)CSSC[C@@H](C(=O)O)NC(=O)CNC(=O)[C@H](CC(C)C)NC(=O)CNC(=O)[C@H](CO)NC(=O)[C@H](CC(C)C)NC(=O)[C@H](CO)NC(=O)CNC1=O [compound 1448] ({C18 diacid-γGlu-γGlu-γGlu-γGlu}-QEHPQARKYEGAQKKGLSKGCFGLPLDRIGSLSGLGC-OH; disulfide 21-37) | 33.3
